Assay results from US7910560B2, “Method for increasing breast meat yield in poultry” (Arkion Life Sciences LLC, priority 2003, dated 2011).
Marks after values point to notes of the source that are not given here.

Experiments:
commercial broilers [1] = experiment: Natamycin in feeds formulated for portion-control processed broilers (Example 1); assay type: in vivo, Gallus domesticus
Source text: (§1) Mixed feed was stored in 50 lb capacity feed sacks. Feed was stored by treatment and treatment diets were further identified with color-codes. After each diet had been mixed, three composite samples (approximately 1 lb each) were collected. The amount of feed mixed for each treatment was as follows: [table] Normal, healthy day-old chicks were obtained from a commercial hatchery. Birds were transported from the hatchery location to Denver, Colo. via commercial air freight. Ground transportation was used to transport chicks from Denver to Wellington, Colo. The study started with 1200 commercial broilers of the species Gallus domesticus, the birds being placed into pens (30 male/30 female per pen). Treatments were assigned to pens using randomized block design. The research facility was divided into 10 blocks of 2 pens each. Birds were assigned randomly according to CQR SOPs. [table] Feed was provided ad libitum throughout the study via two hanging 17-inch diameter tube feeders per pen. A chick feeder tray was also placed in each pen for approximately the first 6 days. All birds were placed on their respective treatment diets upon receipt (approx. 0 days of age). All feed added and removed from pens was weighed and recorded. All experimental diet changes were conducted at the same time for both treatment groups.

commercial broilers [2] = experiment: Natamycin in feeds formulated for growing large broilers (Example 2); assay type: in vivo, Gallus domesticus
Source text: as §1, with “1400” for “1200”, “domesticus.” for “domesticus, the birds being placed into pens (30 male/30 female per pen).”, “SOPs.” for “SOPs. [table]”

commercial broilers [3] = experiment: Natamycin feed additive in diets manufactured using a gap extender (Example 3); assay type: in vivo, Gallus domesticus
Source text: as §1, with “The natamycin test article” for “Mixed feed”, “mixed into the treatment” for “stored in 50 lb capacity feed sacks. Feed was stored”, “the ConAgra Poultry Company. Once” for “treatment and treatment diets were further identified with color-codes. After”, “1140” for “1200”, “domesticus.” for “domesticus, the birds being placed into pens (30 male/30 female per pen).”

[4] = cited from earlier work
[5] = 49 days, 1 lbs/ton natamycin in feed ad libitum

Compound: C[C@@H]1C/C=C/C=C/C=C/C=C/[C@H](O[C@@H]2O[C@H](C)[C@@H](O)[C@H](N)[C@@H]2O)C[C@@H]2O[C@](O)(C[C@@H](O)C[C@H]3O[C@@H]3/C=C/C(=O)O1)C[C@H](O)[C@H]2C(=O)O [Natamycin, natamycin]
- Breast Weight, Treatment Total (commercial broilers [1]; 43 days, 1 lbs/ton natamycin in feed ad libitum, 230 birds): 77.485
- % Breast, Treatment Average (commercial broilers [1]; 43 days, 1 lbs/ton natamycin in feed ad libitum, statistically extremely significant): 22.83** %
- Breast Weight, Treatment Average (commercial broilers [1]; 43 days, 1 lbs/ton natamycin in feed ad libitum, statistically very significant): 0.337*
- Breast weight and breast yield versus control (commercial broilers [1]; over a 43 day period, statistically significant): increased breast weight and breast yield
- Breast Weight, Treatment Total (commercial broilers [2]; 61 days, 1 lbs/ton natamycin in feed ad libitum, 230 birds printed): 141.840
- % Breast, Treatment Average (commercial broilers [2]; 61 days, 1 lbs/ton natamycin in feed ad libitum, statistically extremely significant): 21.72** %
- Breast Weight, Treatment Average (commercial broilers [2]; 61 days, 1 lbs/ton natamycin in feed ad libitum, statistics not calculated): 0.505
- Breast weight and breast yield versus control (commercial broilers [2]; over a 61 day period, breast yield increase statistically significant): increased breast weight and breast yield
- Breast Weight, Bird Average (commercial broilers [3]; [5]): 0.465
- Breast Weight, Pen Average (commercial broilers [3]; [5]): 8.315
- % Breast, Pen Average (commercial broilers [3]; 49 days, 1 lbs/ton natamycin in feed ad libitum, statistically significant): 23.31* %
- Breast weight and breast yield versus control (commercial broilers [3]; over a 49 day period, breast yield increase statistically significant): increased breast weight and breast yield
- Solubility in water [4]: 0.005-0.010 weight/weight percent
